Laboratory results: US10947199B2, “Spiro and cyclic bis-benzylidene proteasome inhibitor for the treatment of cancer, diabetes and neurological disorders” (UP THERAPEUTICS, INC., priority 2017, dated 2021)
Entries after “also recorded” stand apart in the source; their conditions may differ.

Key:
[1] = system: proteasome function (4Ub-FL reporter) in 293TT cells; assay: 4Ub-FL reporter assay of proteasome function in live cells; type: cell-based; settings: 293TT cells expressing 4Ub-FL; for 4Ub-FL reporter stabilization / bioluminescence increase (qualitative): dose dependent
Description: (§1) To measure proteasome function in live cells, we utilized an engineered ubiquitin-firefly (4Ub-FL) reporter in which four copies of mutant ubiquitin (ubiquitin G76V) gene are fused to the N-terminus of the firefly luciferase (FL) gene. The results of this experiment, shown in FIG. 1, reveal that the 4Ub-FL reporter protein is rapidly degraded by the proteasome.
as §1, with “The” for “The results of this experiment, shown in FIG. 1, reveal that the”, “proteasome (FIG. 6). […] Treatment of Up109 produced a greater increase in the 4Ub-FL bioluminescence in a dose dependent manner.” for “proteasome.”

[2] = system: NFκB reporter in 293 cells; assay: NFκB reporter assay in 293 cells stimulated with TNF-a; type: cell-based; settings: 293 cells carrying NFκB reporter construct
Description: (§2) NFκB is constitutively activated in many cancers including high grade cervical intraepithelial neoplasia (CIN) and cervical cancer.

SKOV3-TR = assay: MTT cell viability assay, SKOV3-TR; type: cell-based; settings: for difference in activity between SKOV3 and its taxol resistant line (SKOV3-TR): SKOV3 vs SKOV3-TR; for IC50: SKOV3-TR, Ovarian Cancer (taxol resistant), MTT, 24 or 48 or 72 hours
Procedure: (§3) Briefly cancer cells incubated with Up compounds for the period of 24 or 48 or 72 hours and the cell viability was measured using MTT assay. IC50 of compounds listed in Table1.

RPN13 [3] = biological target: T1, RPN13 (Homo sapiens, UniProt Q16186); assay: RA190B probe competition assay, OV2008 cell lysate; type: binding; settings: compound 25 μM, RA190B 5 μM
T1 construct: HeLa cell lysate was pretreated with Up109 or Up117; endogenous in cells; host or cells: HeLa cell lysate
T1 sequence (Q16186 whole entry): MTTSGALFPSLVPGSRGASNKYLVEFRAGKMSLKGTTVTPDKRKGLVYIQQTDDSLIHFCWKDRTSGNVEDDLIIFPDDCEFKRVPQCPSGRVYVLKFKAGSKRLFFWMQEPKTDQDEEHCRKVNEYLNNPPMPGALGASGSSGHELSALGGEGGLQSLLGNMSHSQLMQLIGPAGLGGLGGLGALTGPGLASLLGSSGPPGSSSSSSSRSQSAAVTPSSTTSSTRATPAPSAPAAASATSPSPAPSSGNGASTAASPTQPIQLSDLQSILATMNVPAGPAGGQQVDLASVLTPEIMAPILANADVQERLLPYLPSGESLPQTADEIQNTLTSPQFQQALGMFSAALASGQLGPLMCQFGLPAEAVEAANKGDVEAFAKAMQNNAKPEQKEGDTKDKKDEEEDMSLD
Procedure: (§4) To identify the cellular target, a competition assay was performed using RA190B probe. […] We used RA190B as a probe to determine the Up compounds binding to RPN13. OV2008 cell lysate was pretreated with Up compounds (25 μM) and then subsequently treated with RA190B (5 μM). Lysate was denatured under reduced conditions and proteins were separated on a gel and probed with HRP Streptavidin.

HCC1806 = assay: MTT cell viability assay, HCC1806; type: cell-based; settings: HCC1806, Triple Negative Breast Cancer, 24 or 48 or 72 hours
Procedure: as §3

[4] = Dose limiting toxicity studies; type: in vivo
Procedure: To identify the optimal dose that induces a clinical effect and operates with acceptable toxicity a set of experiments has been performed on female Balb/C strain mice with Up109. Individual groups of mice (n=3) were injected i.p. with increasing single doses of Up109 (3, 10, 20, 40 and 100 mg/Kg) and the endpoint evaluations included clinical observations and body weights. […] Another experiment was done with repeated i.p. doses of Up109 (40 mg/Kg, n=5) every other day for two weeks.

RPMI8226 = assay: MTT cell viability assay, RPMI8226; type: cell-based; settings: RPMI8226, Multiple Myeloma, 24 or 48 or 72 hours
Procedure: as §3

RPN13 [5] = biological target: T1, RPN13; assay: RA190B probe competition assay, HeLa cell lysate; type: binding; settings: HeLa cell lysate pretreated with compound
Procedure: as §4, with “compound” for “compounds”, “HeLa” for “OV2008”, “Up109 or Up117” for “Up compounds (25 μM)”, “RA190B.” for “RA190B (5 μM).”, “HRPStreptavidin.” for “HRP Streptavidin.”

[6] = system: human ovarian cancer ES2 xenograft (ES2-Lu); assay: ES2-Lu ovarian cancer xenograft, intraperitoneal; type: in vivo; settings: nude female mice, 10 mg/Kg on alternate days for two weeks
Procedure: To test the efficacy of Up109 to treat the human ovarian cancer ES2 xenograft model, the luciferase-expressing ES2 cells (ES2-Lu) were inoculated into peritoneal cavity of nude female mice (i.e. orthotopically). Two days after inoculation the mice were imaged for their basal luminescence activity and then randomized into two groups (n=10). First group was treated with the vehicle and the second group was treated with Up109 (10 mg/Kg) on alternate days for two weeks. Mice were imaged after the first and second week of treatment for their luciferase activity. […] Tumor burden in the vehicle group mice was excessive and sacrificed at the end of the treatment (FIG. 10).

[7] = system: proteasome (4UbFL reporter) in muscle cells; assay: 4UbFL reporter in muscle of live mice, IVIS imaging; type: in vivo; settings: Balb/c mice, i.p. 40 mg/Kg; imaged 4 h, 24 h and 48 h post treatment
Procedure: To test for proteasome inhibition by Up109 in vivo, muscle cells of live Balb/c mice transduced with the 4UbFL reporter DNA construct by electroporation. After i.p. injection of luciferin, the enzymic activity of luciferase in the transfected muscle tissue was visualized as bioluminescence using an IVIS imager. At two days post electroporation of the 4UbFL DNA, mice were imaged and base line luminescence recorded. The control group (n=5) of mice was treated i.p. with vehicle alone and another group (n=5) treated i.p with Up109 (40 mg/Kg). After 4 h, 24 h and 48 h post treatment mice were again imaged and luminescence was quantified (FIG. 9).

A2780 cancer cells = assay: Colony formation, A2780; type: cell-based; settings: corresponding to IC50 values
HeLa = assay: MTT cell viability assay, HeLa; type: cell-based; settings: Cervical Cancer, 24 or 48 or 72 hours
Procedure: as §3

OV2008 = assay: MTT cell viability assay, OV2008; type: cell-based; settings: OV2008, Ovarian Cancer, 24 or 48 or 72 hours
Procedure: as §3

HS578T = assay: MTT cell viability assay, HS578T; type: cell-based; settings: Triple Negative Breast Cancer, 24 or 48 or 72 hours
Procedure: as §3

ES2 = assay: MTT cell viability assay, ES2; type: cell-based, human; settings: ES2, Ovarian Cancer, 24 or 48 or 72 hours
Procedure: as §3

[8] = system: HFF(primary human foreskin fibroblast); assay: MTT cell viability assay, HFF; type: cell-based; settings: Normal Cell line, 24 or 48 or 72 hours
Procedure: as §3

[9] = system: K48-linked polyubiquitinated proteins in HeLa cells; assay: anti-K48-linked ubiquitin immunoblot in HeLa cells; type: cell-based; settings: 4 hr treatment
Description: Accumulation of poly ubiquitinated proteins is a general phenomenon of proteasome inhibition. We examined the impact of these compounds on the levels of polyubiquitinated proteins in HeLa cells by anti-K48-linked ubiquitin immunoblot analysis.

DU145 = assay: MTT cell viability assay, DU145; type: cell-based; settings: DU145, Prostate Cancer, 24 or 48 or 72 hours
Procedure: as §3

PC-3 = assay: MTT cell viability assay, PC-3; type: cell-based; settings: PC-3, Prostate Cancer, 24 or 48 or 72 hours
Procedure: as §3

SKOV3 = assay: MTT cell viability assay, SKOV3; type: cell-based; settings: SKOV3, Ovarian Cancer, 24 or 48 or 72 hours
Procedure: as §3

MM.1S = assay: MTT cell viability assay, MM.1S; type: cell-based; settings: Multiple Myeloma, 24 or 48 or 72 hours
Procedure: as §3

HepG2 = assay: MTT cell viability assay, HepG2; type: cell-based; settings: HepG2, Liver Cancer, 24 or 48 or 72 hours
Procedure: as §3

OVCAR5 = assay: MTT cell viability assay, OVCAR5; type: cell-based; settings: OVCAR5, Ovarian Cancer, 24 or 48 or 72 hours
Procedure: as §3

LNCaP = assay: MTT cell viability assay, LNCaP; type: cell-based; settings: Prostate Cancer, 24 or 48 or 72 hours
Procedure: as §3

IkB-a in HeLa cells = assay: IkB-a stabilization in HeLa cells with TNF-a; type: cell-based; settings: in the presence of TNF-a
Description: as §2

A2780 = assay: MTT cell viability assay, A2780; type: cell-based; settings: A2780, Ovarian Cancer, 24 or 48 or 72 hours
Procedure: as §3

MDA-MB-231 = assay: MTT cell viability assay, MDA-MB-231; type: cell-based; settings: MDA-MB-231, Triple Negative Breast Cancer, 24 or 48 or 72 hours
Procedure: as §3

OV2008 cancer cells = assay: Colony formation, OV2008; type: cell-based; settings: corresponding to IC50 values
[10] = system: CHOP-10 mRNA in ES2 cells; assay: CHOP-10 mRNA expression in ES2 cells; type: cell-based, human; settings: 12 h
Description: (§5) Accumulation of unfolded proteins upon the inhibition of proteasome function rapidly induces endoplasmic reticulum (ER) stress. ER stress triggers an evolutionarily conserved series of signal-transduction events, which constitute the unfolded protein response (UPR). The UPR attempts to restore protein homeostasis by eliminating the accumulated unfolded proteins in the ER; however, if protein homeostasis cannot be restored, apoptosis is triggered. C/EBP homologous protein (CHOP) is elevated at the onset of UPR-induced programmed cell death.

RPMI8226-R = assay: MTT cell viability assay, RPMI8226-R; type: cell-based; settings: Multiple Myeloma, 24 or 48 or 72 hours
Procedure: as §3

ES2 cells = assay: Annexin-V staining by FACS of ES2 cells; type: cell-based, human; settings: 12 h
Procedure: FIG. 8: (A) CHOP-10 quantification in ES2 cells treated with Up109 for 12 h; (B) Annexin-V staining by FACS analysis of ES2 cells treated with Up109 and Bortezomib for 12 h.
as §5

OVCAR3 = assay: MTT cell viability assay, OVCAR3; type: cell-based; settings: OVCAR3, Ovarian Cancer, 24 or 48 or 72 hours
Procedure: as §3

| SMILES | increase in 4Ub-FL bioluminescence compared to before treatment [1] | NFκB reporter activity after stimulation with TNF-a [2] | difference in activity between SKOV3 and its taxol resistant line (SKOV3-TR) (SKOV3-TR) | 4Ub-FL reporter stabilization / bioluminescence increase (qualitative) [1] | competition with RA190B for binding to RPN13 (RPN13 [3]) | IC50 (HCC1806) [µM] | IC50 (RPMI8226) [µM] | competition with RA190B for binding to RPN13 (RPN13 [5]) | colony formation (A2780 cancer cells) | IC50 (HeLa) [µM] | IC50 (OV2008) [µM] | IC50 (HS578T) [µM] | IC50 (SKOV3-TR) [µM] | IC50 (ES2) [µM] | IC50 [8] [µM] | levels of K48-linked polyubiquitinated proteins [9] | IC50 (DU145) [µM] | IC50 (PC-3) [µM] | IC50 (SKOV3) [µM] | IC50 (MM.1S) [µM] | further results |
| --- | --- | --- | --- | --- | --- | --- | --- | --- | --- | --- | --- | --- | --- | --- | --- | --- | --- | --- | --- | --- | --- |
| Cl.N[C@@H](Cc1ccccc1)C(=O)N1C/C(=C/c2ccc(Cl)c(Cl)c2)C(=O)/C(=C\c2ccc(Cl)c(Cl)c2)C1 [RA190, reference compound] | fivefold increase | significant dose-dependent decrease |  |  |  |  |  |  |  |  |  |  |  |  |  |  |  |  |  |  |  |
| CC(=O)O[C@H]1C(=O)[C@@]2(C)[C@H]([C@H](OC(=O)c3ccccc3)[C@]3(O)C[C@H](OC(=O)[C@H](O)[C@@H](NC(=O)c4ccccc4)c4ccccc4)C(C)=C1C3(C)C)[C@]1(OC(C)=O)CO[C@@H]1C[C@@H]2O [Taxol, reference compound] |  |  | 7 fold |  |  |  |  |  |  |  |  |  |  |  |  |  |  |  |  |  |  |
| C=CC(=O)N1CCC2(CC1)C(=Cc1ccc([N+](=O)[O-])cc1)C(=O)C2=Cc1ccc([N+](=O)[O-])cc1 [Up109] | thirteen-fold increase | significant dose-dependent decrease | similarly active | greater increase in the 4Ub-FL bioluminescence than RA190; also recorded: stabilization and an increase in luciferase activity | Disappearance of RA190B labeling | 0.042 | 0.123 | disappearance of RA190B labeling | significantly blocked colony formation | 0.075 | 0.034 | 0.017 | 0.058 | 0.022 | > 1.25 | dramatically increased | 0.077 | 0.057 | 0.045 | 0.035 | toxicities/weight loss, repeated dose ([4]; Balb/C mice, i.p. 40 mg/Kg every other day for two weeks): No observable toxicities/weight loss; clinical observations and body weights, single dose ([4]; female Balb/C mice, single i.p. doses 3, 10, 20, 40 and 100 mg/Kg): No clinically apparent sign of adverse effect; weight loss and observable side effects [6]: no weight loss and any observable side effects; tumor burden compared to the vehicle ([6]; ES2-Lu i.p.): significantly reduced the tumor burden; 4UbFL reporter stabilization in vivo (bioluminescence) [7]: Stabilized; IC50 (HepG2): 0.118 µM; IC50 (OVCAR5): 0.019 µM; IC50 (LNCaP): 0.065 µM; stabilization of IkB-a (IkB-a in HeLa cells): Stabilization of IkB-a was observed; IC50 (A2780): 0.013 µM; IC50 (MDA-MB-231): 0.038 µM; colony formation (OV2008 cancer cells): significantly blocked colony formation; CHOP-10 mRNA expression [10]: rapidly up-regulated; IC50 (RPMI8226-R): 0.061 µM; Annexin-V positive cells (apoptosis) (ES2 cells): elevation of apoptosis; IC50 (OVCAR3): 0.021 µM |
| O=C(CCl)NC(Cc1ccccc1)C(=O)N1CCC2(CC1)C(=Cc1ccc([N+](=O)[O-])cc1)C(=O)C2=Cc1ccc([N+](=O)[O-])cc1 (stereo not drawn) [Up117] |  | significant dose-dependent decrease | similarly active | greater increase in the 4Ub-FL bioluminescence than RA190 | Disappearance of RA190B labeling | 0.071 | 0.14 | disappearance of RA190B labeling | significantly blocked colony formation | 0.089 | 0.047 | 0.032 | 0.202 | 0.041 | > 1.25 | dramatically increased | 0.13 | 0.074 | 0.157 | 0.042 | IC50 (HepG2): 0.447 µM; IC50 (OVCAR5): 0.037 µM; IC50 (LNCaP): 0.087 µM; stabilization of IkB-a (IkB-a in HeLa cells): Stabilization of IkB-a was observed; IC50 (A2780): 0.022 µM; IC50 (MDA-MB-231): 0.056 µM; colony formation (OV2008 cancer cells): significantly blocked colony formation; IC50 (RPMI8226-R): 0.078 µM |
